Laboratory results published in publication PMC4746387, “A Bioactivity-Based Method for Screening, Identification of Lipase Inhibitors, and Clarifying the Effects of Processing Time on Lipase Inhibitory Activity of Polygonum Multiflorum” (Evidence-based Complementary and Alternative Medicine : eCAM, 2016).
Like-named read-outs stand apart in the source and are kept apart here.

Key:
lipase [1] = target: T1, lipase (Sus scrofa, UniProt P00591); assay: Assay for lipase inhibitory activity (4-methylumbelliferyl oleate substrate, fluorescence of 4-methylumbelliferone); type: biochemical; settings: for lipase inhibition ratio: at the concentration of 1.0 mg/mL; for IC50: reference standards (purity > 98%), eight diluted concentrations, 25°C, 20 min
T1 construct: purchased Solar Bio Science Co. Ltd. (Beijing, China) L3126
T1 sequence (P00591 1-450): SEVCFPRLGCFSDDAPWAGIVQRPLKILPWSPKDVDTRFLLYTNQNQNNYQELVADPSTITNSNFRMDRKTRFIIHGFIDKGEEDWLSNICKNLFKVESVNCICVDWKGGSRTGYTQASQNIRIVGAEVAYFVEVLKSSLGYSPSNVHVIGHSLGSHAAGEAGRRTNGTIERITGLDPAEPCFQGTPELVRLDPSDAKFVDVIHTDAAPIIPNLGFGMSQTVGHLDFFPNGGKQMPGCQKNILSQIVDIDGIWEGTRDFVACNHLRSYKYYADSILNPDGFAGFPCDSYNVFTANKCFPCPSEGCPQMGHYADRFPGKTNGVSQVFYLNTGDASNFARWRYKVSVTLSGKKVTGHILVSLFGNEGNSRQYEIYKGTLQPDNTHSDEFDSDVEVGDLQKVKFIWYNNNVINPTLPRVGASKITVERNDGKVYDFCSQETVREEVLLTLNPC
Description: 4-Methylumbelliferyl oleate (4.406 mg) was accurately weighed and dissolved by Tris-HCl solution (pH 8.0, 1.3 mM NaCl, and 1.3 mM CaCl2) with the final concentration of 0.1 mM. 100 mg lipase was dissolved with deionized water and the insoluble substances were removed by centrifugation at 14,000 rpm for 10 min. Finally, the concentration of enzyme solution was 1.0 mg/mL.
Gallic acid, catechin, epicatechin, polydatin, 2,3,5,4′-tetrahydroxystilbene-2-O-β-D-glucoside, resveratrol, emodin-8-O-glucoside, physcion-8-O-glucoside, rhein, emodin, and physcion with the concentration of 1.0 mg/mL were prepared in methanol for quality control. Rhein, emodin, and physcion were dissolved in DMSO (Dimethyl Sulfoxide) with suitable concentrations. The reference standards solution was diluted serially with 10% methanol for the bioassays. The concentrations of DMSO in a series of samples at different concentrations were less than 0.1% (v/v). […] It was prepared with 10% methanol and diluted to a series of different concentrations.
(§1) The assay of lipase was performed according to previous method with slight modifications. 25 μL test samples and 25 μL lipase solution were mixed together. Then, 50 μL 4-methylumbelliferyl oleate was added to the mixture. After incubating at 25°C for 20 min, 100 μL sodium citrate (0.1 M, pH 4.2) was added to stop the reaction. Finally, the amount of 4-methylumbelliferone released by lipase was measured by microplate reader at an excitation wavelength of 355 nm and an emission wavelength of 460 nm. The inhibitory activity was calculated by the formula: inhibition (%) = [1 − (A sample/A control)] × 100, where A sample and A control were absorbance of the test sample and the control, respectively.
In the bioassay experiments, all the analysis was carried out in triplicate. All values were expressed in the form of mean ± standard deviation (SD); IC50 values were determined by Graph Pad Prism 5 software.

lipase [2] = target: T1, lipase; assay: Lipase inhibitory activity of enriched UHPLC fractions of P. multiflorum extract and their contribution to total activity (orlistat potency units); type: biochemical; settings: for lipase inhibitory effect of fractions of peaks: fractions of P. multiflorum extract enriched for 40 and 60 times, Figure 1; for contribution to the total lipase inhibitory activity: potency of individual fraction/total lipase inhibitory × 100%, orlistat equivalent potency units
Description: When the P. multiflorum extract was injected into the UHPLC system, the fraction collector (BSZ-100, Shanghai QingpuHuxi Instrument, Shanghai, China) was used for the fraction collection by setting the time interval at 20 s. Then, the fractions were collected and evaporated to dryness by nitrogen gas. The residues were reconstituted and diluted for bioassays.
as §1
The extract was injected in UHPLC for the separation of the components and all fractions were collected for the bioassays. The lipase inhibitory effect was expressed as inhibition ratio (%), which could be calculated by the above mentioned formula. The time interval of fraction collector was set at 20 s according to the resolution and peak shape in the chromatogram. […] The fractions from the same peak were combined.
The potency calibration curve was constructed by plotting the potency (y) against the corresponding inhibition ratio (x). […] Then, the potency of the enriched fractions was determined by the curve mentioned above. […] The contribution of individual fractions was calculated by the formula: contribution (%) = potency of individual fraction/the total lipase inhibitory × 100%.

[3] = read-out: IC50 (μg/mL) (converted)

SMILES	lipase inhibition ratio (lipase [1]) [%]	lipase inhibitory effect of fractions of peaks (lipase [2])	IC50 (lipase [1]) [µg/mL]	contribution to the total lipase inhibitory activity (lipase [2])	IC50 (lipase [1]; [3]) [µM]
O.Oc1cc(O)c2c(c1)O[C@H](c1ccc(O)c(O)c1)[C@@H](O)C2 [Catechin]	≤ 50	relatively weak inhibitory effect	–	–	–
Cc1cc(O[C@@H]2O[C@H](CO)[C@@H](O)[C@H](O)[C@H]2O)c2c(c1)C(=O)c1cc(O)cc(O)c1C2=O [Emodin-8-O-glucoside]	–	strong inhibition	296.0	less than 10%	–
Cc1cc(O)c2c(c1)C(=O)c1cc(O)cc(O)c1C2=O [Emodin]	–	strong inhibition	–	less than 10%	1290
Oc1cc(O)c2c(c1)O[C@H](c1ccc(O)c(O)c1)[C@H](O)C2 [Epicatechin]	≤ 50	relatively weak inhibitory effect	–	–	–
O=C(O)c1cc(O)c(O)c(O)c1 [Gallic acid]	≤ 50	relatively weak inhibitory effect	–	–	–
COc1cc(O)c2c(c1)C(=O)c1cc(C)cc(OC3OC(CO)C(O)C(O)C3O)c1C2=O (stereo not shown) [Physcion-8-O-glucoside]	–	strong inhibition	421.5	–	–
COc1cc(O)c2c(c1)C(=O)c1cc(C)cc(O)c1C2=O [Physcion]	–	strong inhibition	–	less than 10%	2860
OC[C@H]1O[C@@H](Oc2cc(O)cc(/C=C/c3ccc(O)cc3)c2)[C@H](O)[C@@H](O)[C@@H]1O [Polydatin]	–	relatively weak inhibitory effect	–	–	–
Oc1ccc(/C=C/c2cc(O)cc(O)c2)cc1 [Resveratrol]	–	strong inhibition	–	–	2470
O=C(O)c1cc(O)c2c(c1)C(=O)c1cccc(O)c1C2=O [Rhein]	–	strong inhibition	–	–	813
